pEC50, pIC50: −log10 of the molar value. The source made the active and inactive calls. No cut-off for these calls is given here.
Tests used:
[1] = molecular target: T1, Bile acid receptor (Homo sapiens) (UniProt Q96RI1); test: Partial agonist activity at FXR in human Huh-7 cells assessed as reduction in CDCA-induced FAS gene expression at 10 uM by RT-PCR analysis; assay type: cell-based; conditions: filed as partial agonist
T1 sequence (whole entry): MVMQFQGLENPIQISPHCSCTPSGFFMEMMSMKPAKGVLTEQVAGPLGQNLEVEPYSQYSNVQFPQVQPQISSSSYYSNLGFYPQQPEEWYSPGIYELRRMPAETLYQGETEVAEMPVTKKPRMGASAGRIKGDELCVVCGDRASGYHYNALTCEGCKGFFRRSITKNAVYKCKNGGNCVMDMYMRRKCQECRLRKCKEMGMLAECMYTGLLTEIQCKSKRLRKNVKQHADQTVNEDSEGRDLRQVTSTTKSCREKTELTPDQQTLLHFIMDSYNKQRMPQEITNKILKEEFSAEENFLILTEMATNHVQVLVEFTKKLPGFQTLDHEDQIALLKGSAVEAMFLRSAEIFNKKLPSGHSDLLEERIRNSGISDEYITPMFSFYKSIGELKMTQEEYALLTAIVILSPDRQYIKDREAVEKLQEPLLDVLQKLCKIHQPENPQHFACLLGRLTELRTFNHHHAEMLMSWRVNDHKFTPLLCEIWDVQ

[2] = molecular target: T2, Bile acid receptor (Homo sapiens, UniProt Q96RI1); test: Antagonist activity at FXR-LBD-GST (unknown origin) in presence of GW4064
T2 sequence (Q96RI1 whole entry): T1 sequence (whole entry)

[3] = molecular target: T1, Bile acid receptor (Homo sapiens); test: Antagonist activity at FXR-LBD-GST (unknown origin) in presence of GW4064 relative to control; design: scale not given: the % may be the effect or the level left
[4] = molecular target: T1, Bile acid receptor (Homo sapiens); test: Partial agonist activity at FXR in human Huh-7 cells assessed as reduction in CDCA-induced BSEP gene expression at 10 uM by RT-PCR analysis; assay type: cell-based; conditions: filed as partial agonist
[5] = molecular target: T1, Bile acid receptor (Homo sapiens); test: Partial agonist activity at human FXR expressed in Huh-7 cells in presence of CDCA by luciferase reporter gene assay relative to GW4064; assay type: cell-based
[6] = molecular target: T3, Retinoic acid receptor alpha (Homo sapiens) (UniProt P10276); test: Activation of RARalpha (unknown origin) at 10 uM
T3 sequence (whole entry): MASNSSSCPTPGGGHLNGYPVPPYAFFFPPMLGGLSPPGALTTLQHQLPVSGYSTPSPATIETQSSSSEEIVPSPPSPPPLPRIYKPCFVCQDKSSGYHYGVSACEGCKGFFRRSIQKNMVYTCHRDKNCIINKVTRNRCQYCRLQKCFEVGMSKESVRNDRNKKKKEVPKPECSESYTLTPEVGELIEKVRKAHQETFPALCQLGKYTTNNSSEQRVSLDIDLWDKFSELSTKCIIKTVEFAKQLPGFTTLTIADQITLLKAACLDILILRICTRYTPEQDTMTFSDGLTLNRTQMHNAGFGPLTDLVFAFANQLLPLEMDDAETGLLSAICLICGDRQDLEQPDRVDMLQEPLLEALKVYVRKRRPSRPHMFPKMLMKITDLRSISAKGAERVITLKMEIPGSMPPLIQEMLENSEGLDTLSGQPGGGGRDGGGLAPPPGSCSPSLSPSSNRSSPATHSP

[7] = molecular target: T4, Retinoic acid receptor RXR-alpha (Homo sapiens) (UniProt P19793); test: Activation of RXRalpha (unknown origin) at 10 uM
T4 sequence (whole entry): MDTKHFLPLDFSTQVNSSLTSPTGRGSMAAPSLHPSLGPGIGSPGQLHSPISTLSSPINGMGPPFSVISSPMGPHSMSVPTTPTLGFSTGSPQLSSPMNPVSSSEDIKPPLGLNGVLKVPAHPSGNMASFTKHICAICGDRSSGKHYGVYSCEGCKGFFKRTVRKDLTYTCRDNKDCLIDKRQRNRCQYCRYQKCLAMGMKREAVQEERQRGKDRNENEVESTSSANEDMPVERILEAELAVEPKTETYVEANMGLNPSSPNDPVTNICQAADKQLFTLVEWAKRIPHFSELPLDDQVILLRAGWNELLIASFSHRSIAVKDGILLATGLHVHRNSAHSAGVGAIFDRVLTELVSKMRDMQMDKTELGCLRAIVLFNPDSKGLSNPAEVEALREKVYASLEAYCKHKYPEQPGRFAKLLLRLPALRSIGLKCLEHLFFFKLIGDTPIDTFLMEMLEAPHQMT

[8] = molecular target: T5, Oxysterols receptor LXR-beta (Homo sapiens) (UniProt P55055); test: Activation of LXR beta (unknown origin) at 10 uM
T5 sequence (whole entry): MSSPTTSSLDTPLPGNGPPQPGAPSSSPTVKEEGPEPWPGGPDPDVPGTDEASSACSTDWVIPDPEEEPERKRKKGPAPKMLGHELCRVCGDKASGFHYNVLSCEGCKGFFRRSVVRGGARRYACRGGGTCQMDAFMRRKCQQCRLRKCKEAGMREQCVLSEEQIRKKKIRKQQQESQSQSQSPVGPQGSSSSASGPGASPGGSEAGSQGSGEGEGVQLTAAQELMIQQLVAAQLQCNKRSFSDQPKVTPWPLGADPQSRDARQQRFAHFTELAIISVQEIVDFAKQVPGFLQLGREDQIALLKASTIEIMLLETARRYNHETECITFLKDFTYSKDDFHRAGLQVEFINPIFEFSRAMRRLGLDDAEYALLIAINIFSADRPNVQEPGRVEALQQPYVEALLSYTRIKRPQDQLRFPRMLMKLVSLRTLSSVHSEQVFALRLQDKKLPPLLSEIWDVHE

[9] = molecular target: T6, Peroxisome proliferator-activated receptor delta (Homo sapiens) (UniProt Q03181); test: Activation of PPARdelta (unknown origin) at 10 uM
T6 sequence (whole entry): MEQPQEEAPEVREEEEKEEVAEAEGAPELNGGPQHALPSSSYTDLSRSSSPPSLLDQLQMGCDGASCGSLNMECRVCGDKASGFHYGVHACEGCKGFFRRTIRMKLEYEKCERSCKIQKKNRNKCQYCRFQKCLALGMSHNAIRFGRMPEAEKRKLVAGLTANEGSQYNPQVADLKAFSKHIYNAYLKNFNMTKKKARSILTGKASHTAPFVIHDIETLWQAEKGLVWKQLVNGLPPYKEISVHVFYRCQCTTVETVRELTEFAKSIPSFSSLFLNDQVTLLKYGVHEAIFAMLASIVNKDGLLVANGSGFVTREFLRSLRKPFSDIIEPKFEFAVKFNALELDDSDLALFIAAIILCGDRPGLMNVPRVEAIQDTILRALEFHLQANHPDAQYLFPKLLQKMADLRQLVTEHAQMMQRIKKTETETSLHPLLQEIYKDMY

[10] = molecular target: T2, Bile acid receptor; test: Partial agonist activity at human FXR expressed in Huh-7 cells in presence of CDCA by luciferase reporter gene assay; assay type: cell-based

Compound: CC(C)(C)c1ccc(-n2cnc3c(NC(=O)Cc4ccc(C(=O)O)cc4)cccc32)cc1
- Activity [1]: Active
- pIC50 [2]: 4.68
- Activity [3]: 30%
- Activity [4]: Active
- Activity [5]: 35.6%
- Activity [6]: inactive
- Activity [7]: inactive
- Activity [8]: inactive
- Activity [9]: inactive
- pEC50 [10]: 5.72

Source: ChEMBL document CHEMBL5257079, “Discovery of FXR/PPARγ dual partial agonist” (Bioorg Med Chem, 2023)
